Source: patent US20230322846A9, “NEUROACTIVE STEROIDS AND THEIR METHODS OF USE” (SAGE THERAPEUTICS, INC., priority 2018, published 2023)

Target: [35S]-TBPS binding, rat brain cortical membranes
Assay: Steroid inhibition of [35S]-TBPS binding
Settings: 3 nM [35S]-TBPS, in the presence of 5 mM GABA
In short: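 In the presence of […], compounds (DMSO 0.5% final) competed with 3 nM [35S]-TBPS for Sprague-Dawley rat cortical membranes, pH 7.4 phosphate buffer, 90 min, room temperature. Filtration and scintillation counting; specific binding defined by […]; IC50 and maximal inhibition fitted per experiment, averaged as mean ± SEM.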

SMILES	IC50 [nM]
CC[C@@]1(O)CC[C@@]2(C)[C@@H](CC[C@@H]3[C@@H]2CC[C@]2(C)[C@@H]([C@@H](C)Cn4nnc(C)n4)CC[C@@H]32)C1 [Example 359, (3R,5S,8R,9S,10S,13S,14S,17R)-3-ethyl-10,13-dimethyl-17-((R)-1-(5-methyl-2H-tetrazol-2-yl)propan-2-yl)hexadecahydro-1H-cyclopenta[a]phenanthren-3-ol]	≥ 10000
CC[C@@]1(O)CC[C@@]2(C)[C@@H](CC[C@@H]3[C@@H]2CC[C@]2(C)[C@@H]([C@H](C)Cn4nnc(C)n4)CC[C@@H]32)C1 [Example 360, (3R,5S,8R,9S,10S,13S,14S,17R)-3-ethyl-10,13-dimethyl-17-((S)-1-(5-methyl-2H-tetrazol-2-yl)propan-2-yl)hexadecahydro-1H-cyclopenta[a]phenanthren-3-ol]	1000 to 10000
CCC[C@@]1(O)CC[C@H]2[C@H](CC[C@@H]3[C@@H]2CC[C@]2(C)[C@@H]([C@@H](C)Cn4cc(C#N)cn4)[C@H](O)C[C@@H]32)C1 [Example 362, 1-((R)-2-((3R,5R,8R,9R,10S,13S,14S,16R,17R)-3,16-dihydroxy-13-methyl-3-propylhexadecahydro-1H-cyclopenta[a]phenanthren-17-yl)propyl)-1H-pyrazole-4-carbonitrile]	1000 to 10000
CCC[C@@]1(O)CC[C@H]2[C@H](CC[C@@H]3[C@@H]2CC[C@]2(C)[C@@H]([C@@H](C)Cn4nnc(C)n4)C(=O)C[C@@H]32)C1 [Example 364, (3R,5R,8R,9R,10S,13S,14S,17R)-3-hydroxy-13-methyl-17-((R)-1-(5-methyl-2H-tetrazol-2-yl)propan-2-yl)-3-propyltetradecahydro-1H-cyclopenta[a]phenanthren-16(2H)-one]	100 to 1000
CCC[C@@]1(O)CC[C@H]2[C@H](CC[C@@H]3[C@@H]2CC[C@]2(C)[C@@H]([C@H](C)Cc4ccc(C#N)nc4)CC[C@@H]32)C1 [Example 400, 5-((R)-2-((3R,5R,8R,9R,10S,13R,14S,17R)-3-hydroxy-13-methyl-3-propylhexadecahydro-1H-cyclopenta[a]phenanthren-17-yl)propyl)picolinonitrile]	< 100
CCOC[C@@]1(O)CC[C@H]2[C@H](CC[C@@H]3[C@@H]2CC[C@]2(C)[C@@H]([C@@H](C)Cc4cccc(C#N)c4)CC[C@@H]32)C1 [Example 402, 3-((S)-2-((3R,5R,8R,9R,10S,13R,14S,17R)-3-(ethoxymethyl)-3-hydroxy-13-methylhexadecahydro-1H-cyclopenta[a]phenanthren-17-yl)propyl)benzonitrile]	< 100
CCOC[C@@]1(O)CC[C@H]2[C@H](CC[C@@H]3[C@@H]2CC[C@]2(C)[C@@H]([C@H](C)Cc4cccc(C#N)c4)CC[C@@H]32)C1 [Example 403, 3-((R)-2-((3R,5R,8R,9R,10S,13R,14S,17R)-3-(ethoxymethyl)-3-hydroxy-13-methylhexadecahydro-1H-cyclopenta[a]phenanthren-17-yl)propyl)benzonitrile]	100 to 1000
COC[C@@]1(O)CC[C@H]2[C@H](CC[C@@H]3[C@@H]2CC[C@]2(C)[C@@H]([C@@H](C)Cc4ccc(C#N)nc4)CC[C@@H]32)C1 [Example 404, 5-((S)-2-((3R,5R,8R,9R,10S,13R,14S,17R)-3-hydroxy-3-(methoxymethyl)-13-methylhexadecahydro-1H-cyclopenta[a]phenanthren-17-yl)propyl)picolinonitrile]	< 100
CCC[C@@]1(O)CC[C@H]2[C@H](CC[C@@H]3[C@@H]2CC[C@]2(C)[C@@H]([C@@H](C)Cc4ccc(C(F)(F)F)nc4)CC[C@@H]32)C1 [Example 410]	100 to 1000
CCC[C@@]1(O)CC[C@H]2[C@H](CC[C@@H]3[C@@H]2CC[C@]2(C)[C@@H]([C@H](C)Cc4ccc(C(F)(F)F)nc4)CC[C@@H]32)C1 [Example 411]	< 100
CCOC[C@@]1(O)CC[C@H]2[C@H](CC[C@@H]3[C@@H]2CC[C@]2(C)[C@@H]([C@H](C)Cc4cccc(C#N)n4)CC[C@@H]32)C1 [Example 412]	100 to 1000
CCOC[C@@]1(O)CC[C@H]2[C@H](CC[C@@H]3[C@@H]2CC[C@]2(C)[C@@H]([C@@H](C)Cc4ccc(C)nc4C#N)CC[C@@H]32)C1 [Example 414]	< 100
CCOC[C@@]1(O)CC[C@H]2[C@H](CC[C@@H]3[C@@H]2CC[C@]2(C)[C@@H]([C@H](C)Cc4ccc(C)nc4C#N)CC[C@@H]32)C1 [Example 415]	< 100
CCC[C@@]1(O)CC[C@H]2[C@H](CC[C@@H]3[C@@H]2CC[C@]2(C)[C@@H]([C@H](C)Cc4cnc(C)cn4)CC[C@@H]32)C1 [Example 418]	1000 to 10000
COC[C@@]1(O)CC[C@H]2[C@H](CC[C@@H]3[C@@H]2CC[C@]2(C)[C@@H]([C@H](C)Cc4ccc(C(F)(F)F)nc4)CC[C@@H]32)C1 [Example 421]	100 to 1000
COC[C@@]1(O)CC[C@H]2[C@H](CC[C@@H]3[C@@H]2CC[C@]2(C)[C@@H]([C@@H](C)Cc4cnc(C)cn4)CC[C@@H]32)C1 [Example 422]	< 100
COC[C@@]1(O)CC[C@H]2[C@H](CC[C@@H]3[C@@H]2CC[C@]2(C)[C@@H]([C@H](C)Cc4cnc(C)cn4)CC[C@@H]32)C1 [Example 423]	100 to 1000
COC[C@@]1(O)CC[C@H]2[C@H](CC[C@@H]3[C@@H]2CC[C@]2(C)[C@@H]([C@@H](C)Cc4nc(C)ccc4Cl)CC[C@@H]32)C1 [Example 424]	< 100

SMILES	IC50 [nM]
COC[C@@]1(O)CC[C@H]2[C@H](CC[C@@H]3[C@@H]2CC[C@]2(C)[C@@H]([C@H](C)Cc4nc(C)ccc4Cl)CC[C@@H]32)C1 [Example 425]	1000 to 10000
C[C@H](Cc1ccc(C(F)(F)F)nc1)[C@H]1CC[C@H]2[C@@H]3CC[C@@H]4C[C@](C)(O)CC[C@]4(C)[C@H]3CC[C@]12C [Example 426]	100 to 1000
C[C@@H](Cc1ccc(C(F)(F)F)nc1)[C@H]1CC[C@H]2[C@@H]3CC[C@@H]4C[C@](C)(O)CC[C@]4(C)[C@H]3CC[C@]12C [Example 427]	< 100
C[C@@H](Cc1ncc(CO)s1)[C@H]1CC[C@H]2[C@@H]3CC[C@@H]4C[C@](C)(O)CC[C@@H]4[C@H]3CC[C@]12C [Example 428]	< 100
C[C@H](Cc1ncc(CO)s1)[C@H]1CC[C@H]2[C@@H]3CC[C@@H]4C[C@](C)(O)CC[C@@H]4[C@H]3CC[C@]12C [Example 429]	< 100
Cc1cnc(C[C@@H](C)[C@H]2CC[C@H]3[C@@H]4CC[C@@H]5C[C@](C)(O)CC[C@@H]5[C@H]4CC[C@]23C)s1 [Example 431]	100 to 1000
COc1cncc(C[C@H](C)[C@H]2CC[C@H]3[C@@H]4CC[C@@H]5C[C@](C)(O)CC[C@@H]5[C@H]4CC[C@]23C)c1 [Example 432]	< 100
COc1cncc(C[C@@H](C)[C@H]2CC[C@H]3[C@@H]4CC[C@@H]5C[C@](C)(O)CC[C@@H]5[C@H]4CC[C@]23C)c1 [Example 433]	< 100
Cc1cncc(C[C@@H](C)[C@H]2CC[C@H]3[C@@H]4CC[C@@H]5C[C@](C)(O)CC[C@@H]5[C@H]4CC[C@]23C)c1 [Example 434]	100 to 1000
C[C@@H](Cc1nccc(C#N)n1)[C@H]1CC[C@H]2[C@@H]3CC[C@@H]4C[C@](C)(O)CC[C@@H]4[C@H]3CC[C@]12C [Example 435]	< 100
Cc1cnc(C[C@H](C)[C@H]2CC[C@H]3[C@@H]4CC[C@@H]5C[C@](C)(O)CC[C@@H]5[C@H]4CC[C@]23C)nc1 [Example 437]	< 100
Cc1cnc(C[C@@H](C)[C@H]2CC[C@H]3[C@@H]4CC[C@@H]5C[C@](C)(O)CC[C@@H]5[C@H]4CC[C@]23C)cn1 [Example 440]	< 100
Cc1cncc(C[C@H](C)[C@H]2CC[C@H]3[C@@H]4CC[C@@H]5C[C@](C)(O)CC[C@@H]5[C@H]4CC[C@]23C)n1 [Example 441]	< 100
Cc1cncc(C[C@@H](C)[C@H]2CC[C@H]3[C@@H]4CC[C@@H]5C[C@](C)(O)CC[C@@H]5[C@H]4CC[C@]23C)n1 [Example 442]	100 to 1000
C[C@H](Cc1ccc(C(F)(F)F)nc1)[C@H]1CC[C@H]2[C@@H]3CC[C@@H]4C[C@](C)(O)CC[C@@H]4[C@H]3CC[C@]12C [Example 444]	100 to 1000
C[C@@H](Cc1nc(C(F)(F)F)cs1)[C@H]1CC[C@H]2[C@@H]3CC[C@@H]4C[C@](C)(O)CC[C@@H]4[C@H]3CC[C@]12C [Example 449]	< 100
C[C@H](Cc1nc(C(F)(F)F)cs1)[C@H]1CC[C@H]2[C@@H]3CC[C@@H]4C[C@](C)(O)CC[C@@H]4[C@H]3CC[C@]12C [Example 450]	100 to 1000
Cc1cc(C[C@@H](C)[C@H]2CC[C@H]3[C@@H]4CC[C@@H]5C[C@](C)(O)CC[C@@H]5[C@H]4CC[C@]23C)sn1 [Example 451]	100 to 1000
